Tested on: Caco-2 cell line
Experiment: Cytotoxicity MTS assay, Caco-2 cell line
Format: cell-based
Conditions: for OD490 Mean / OD490 Well 1 / OD490 Well 2 / OD490 Well 3: Caco-2 cell line
Protocol: The positive compounds (IC50 < 100 μM) obtained from the primary Eg5 motor protein ATPase assay were tested for antiproliferative activity in vitro against Caco-2 cell line, Hela cell line, L929 cell line and T24 cell line by performing MTS assay. Cells were introduced into 96-well plates at a density of 1000 cells per well. After 24 h incubation, the cells were exposed with compounds at final concentrations ranging from 0.5 to 100 µM for 24 h. DMSO was used at a final concentration of 0.025% as blank control, monastrol was used as the positive control. Then 20 µL (CellTiter 96® AQueous One Solution Promega, Madison, WI, USA) reagent was added in each well. After 2 h at 37 °C in a 80% humidified, 5% CO2 atmosphere, the absorbance at 490 nm was recorded using a microplate reader (BIO-RAD iMark^TM). The results were obtained in three independent duplicate experiments. The primary data were shown in Supplementary Materials Tables S4–S7. The IC50 values for these compounds were calculated from a non-linear regression graph plotted between the percentage of cell viability and concentration with SPSS17.0 software.

## CCOC(=O)c1c(C2NC(=O)NC(C)=C2C(=O)Nc2ccccc2C)[nH]c(C(=O)OC)c1C (stereo not shown) [D2]
0.5μM, first assay
  OD490 Mean: 0.6270
  OD490 Well 1: 0.5887
  OD490 Well 2: 0.6362
  OD490 Well 3: 0.6562
0.5μM, second assay
  OD490 Mean: 0.7070
  OD490 Well 1: 0.7084
  OD490 Well 2: 0.7002
  OD490 Well 3: 0.7123
0.5μM, third assay
  OD490 Mean: 0.6851
  OD490 Well 1: 0.4885
  OD490 Well 2: 0.8254
  OD490 Well 3: 0.7414
1μM, first assay
  OD490 Mean: 0.6349
  OD490 Well 1: 0.5288
  OD490 Well 2: 0.6946
  OD490 Well 3: 0.6813
1μM, second assay
  OD490 Mean: 0.7459
  OD490 Well 1: 0.7813
  OD490 Well 2: 0.6848
  OD490 Well 3: 0.7716
1μM, third assay
  OD490 Mean: 0.6746
  OD490 Well 1: 0.6245
  OD490 Well 2: 0.7010
  OD490 Well 3: 0.6982
10μM, first assay
  OD490 Mean: 0.6116
  OD490 Well 1: 0.5314
  OD490 Well 2: 0.6140
  OD490 Well 3: 0.6893
10μM, second assay
  OD490 Mean: 0.7407
  OD490 Well 1: 0.7116
  OD490 Well 2: 0.7395
  OD490 Well 3: 0.771
10μM, third assay
  OD490 Mean: 0.6639
  OD490 Well 1: 0.7421
  OD490 Well 2: 0.5621
  OD490 Well 3: 0.6874
25μM, first assay
  OD490 Mean: 0.6114
  OD490 Well 1: 0.5587
  OD490 Well 2: 0.6570
  OD490 Well 3: 0.6185
25μM, second assay
  OD490 Mean: 0.6775
  OD490 Well 1: 0.5825
  OD490 Well 2: 0.7137
  OD490 Well 3: 0.7364
25μM, third assay
  OD490 Mean: 0.6183
  OD490 Well 1: 0.6214
  OD490 Well 2: 0.6325
  OD490 Well 3: 0.6010
50μM, first assay
  OD490 Mean: 0.5907
  OD490 Well 1: 0.6013
  OD490 Well 2: 0.6084
  OD490 Well 3: 0.5625
50μM, second assay
  OD490 Mean: 0.5350
  OD490 Well 1: 0.5688
  OD490 Well 2: 0.5038
  OD490 Well 3: 0.5324
50μM, third assay
  OD490 Mean: 0.5761
  OD490 Well 1: 0.6025
  OD490 Well 2: 0.5936
  OD490 Well 3: 0.5321
100μM, first assay
  OD490 Mean: 0.4815
  OD490 Well 1: 0.4762
  OD490 Well 2: 0.4852
  OD490 Well 3: 0.4831
100μM, second assay
  OD490 Mean: 0.5288
  OD490 Well 1: 0.5278
  OD490 Well 2: 0.5253
  OD490 Well 3: 0.5332
100μM, third assay
  OD490 Mean: 0.5185
  OD490 Well 1: 0.5637
  OD490 Well 2: 0.4985
  OD490 Well 3: 0.4932
MTS assay, 24 h exposure
  IC50: 116 µM
